This is an account of results in US20080207728A1, “BICYCLIC ACYLTRYPTOPHANOLS” (priority 2006, published 2008).

The target in one assay is T1, human FSH receptor (Homo sapiens, UniProt P23945).
T1 construct: expressed in transfected cells; host or cells: CHO cells (hFSHR clone 16)
T1 sequence (P23945 18-695): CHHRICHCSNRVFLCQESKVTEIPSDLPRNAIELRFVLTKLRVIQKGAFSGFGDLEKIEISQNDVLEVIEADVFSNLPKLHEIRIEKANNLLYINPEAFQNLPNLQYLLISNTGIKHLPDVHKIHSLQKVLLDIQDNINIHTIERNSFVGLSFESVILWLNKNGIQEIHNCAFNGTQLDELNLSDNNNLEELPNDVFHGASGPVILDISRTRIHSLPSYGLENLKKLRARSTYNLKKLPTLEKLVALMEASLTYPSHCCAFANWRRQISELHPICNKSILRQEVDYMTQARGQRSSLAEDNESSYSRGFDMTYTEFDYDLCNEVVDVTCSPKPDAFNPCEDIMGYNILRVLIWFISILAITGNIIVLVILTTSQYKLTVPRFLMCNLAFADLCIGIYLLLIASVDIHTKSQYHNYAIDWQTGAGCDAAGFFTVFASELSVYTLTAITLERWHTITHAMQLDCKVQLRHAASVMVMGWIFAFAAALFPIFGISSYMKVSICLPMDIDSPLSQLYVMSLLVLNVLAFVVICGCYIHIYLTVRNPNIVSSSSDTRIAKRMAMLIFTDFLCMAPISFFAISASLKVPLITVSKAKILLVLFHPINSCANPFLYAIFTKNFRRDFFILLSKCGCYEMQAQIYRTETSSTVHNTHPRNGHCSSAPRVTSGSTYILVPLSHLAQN
Briefly: HTRF assay for measuring cAMP in cells (FSH antagonism). The format is cell-based. The following applies: Table 1; hFSHR clone 16 cells (CHO cells stably transfected with the human FSH receptor), in the presence of 1e-9 mol/l hFSH, 37° C. for 2 h; read-out: IC50 (FSH-antagonistic effect in the HTRF assay). The procedure: HTRF Assay for Measuring cAMP in Cells
The method is based on a competitive immunoassay between native cAMP, which has been produced by the cells, and cAMP which is labelled with XL665. The tracer binding was visualized by a monoclonal antibody, anti-cAMP labelled with cryptate [HTRF=homogeneous time-resolved fluorescence].
The specific signal is inversely proportional to the cAMP concentration of the samples employed.
The 665 nm/620 nm fluorescence ratio was evaluated.
The following material was used: 96-well plates for the tissue culture, 96-well plates with black edge and black base (e.g. Fluotrac 600 from Greiner), 96-well plates for the substance dilutions of polypropylene and cAMP Femtomolar (4000 wells Kit, CIS Bio International # 62AM1PEC).
The following reagents were used: BSA (bovine serum albumin) Fraction V protease-free, IBMX (3-isobutyl-1-methylxanthine), hFSH (human follicle stimulating hormone), Triton X-100 analytical grade, potassium fluoride analytical grade, G 418 (Geneticin) and Accutase.
Buffer 1 (washing and testing buffer) contained PBS, 1 mM CaCl2, 1 mM MgCl2, 0.2% glucose; 0.1% BSA, 1 mM IBMX.
Buffer 2 (2× lysis buffer) contained 1% Triton X-100 in PBS (without CaCl2 and MgCl2).
Buffer 3 (assay buffer) contained 50 mM potassium phosphate buffer (pH 7.0); 800 mM potassium fluoride; 0.2% BSA (always added fresh).
On day 1, the cells were seeded in 96-well plates (3×10^4 cells per well hFSHR clone 16 cells (CHO cells stably transfected with the human FSH receptor in 150 μl of medium).
The next day, test substance dilutions were made up. For this purpose, all the substances were diluted in ice-cold buffer 1 (with or without hFSH), and the substance dilutions were placed on ice until applied to the cells.
The cell supernatant was then aspirated off, and the cells were washed 2× with 200 μl of buffer 1. The cells were treated with 60 μl of the appropriate substance concentrations at 37° C. for 2 h. The cells were then lysed with 60 μl of buffer 2 (put onto the supernatant) (on a plate shaker at RT for 30 min).
The test conjugates (XL-665 and anti-cAMP cryptate) were diluted in buffer 3 in accordance with the manufacturers' information. The actual mixture for measurement was pipetted into a black 96-well plate (in each case 15 μl of the cell lysate diluted with 35 μl of buffer 1; firstly 25 μl of XL-665 conjugate were pipetted and, after 10 min, 25 μl of the anti-cAMP cryptate were added). This is followed by incubation at RT for 90 minutes. The measurement was carried out in a PheraStar (BMG).
Tissue Culture Conditions
Dose-effect curve (hFSH) for the human receptor: 1e-8, 3e-9, 1 e-9, 3e-10, 1 e-10, 3e-11, 1e-11, 3e-12 mol/l.
The test substances were employed in suitable dilutions in the absence (test for agonism) and in the presence of 1e-9 mol/l hFSH.
The values of the well ratio were averaged and then entered directly in SigmaPlot versus the concentrations. The maximum and minimum values were determined for each plate, and half the difference is to be regarded as IC50.
For the compound `CNC(=O)c1cccc(C#Cc2cc3c(c(C(=O)N[C@@H](CO)Cc4c[nH]c5ccccc45)c2)OC(C)(C)C=C3)c1` [Example 11, 2,2-Dimethyl-6-(3-methylcarbamoyl-phenylethynyl)-2H-chromene-8-carboxylic acid [(R)-1-hydroxymethyl-2-(1H-indol-3-yl)-ethyl]-amide], the half-maximal inhibitory concentration (IC50) amounted to 30 nM.
Turning to `O=C(NC(CO)Cc1c[nH]c2cc(F)ccc12)c1cc(/C=C/c2ccccc2)cc2c1OCCCC2` (stereo not shown) [Example 83, 7-((E)-Styryl)-2,3,4,5-tetrahydro-benzo[b]oxepine-9-carboxylic acid [2-(6-fluoro-1H-indol-3-yl)-1-hydroxymethyl-ethyl]-amide], the IC50 was 350 nM.
On to `CNC(=O)c1ccc(-c2cc3c(c(C(=O)NC(CO)Cc4c[nH]c5cccc(F)c45)c2)OC(C)(C)C=C3)cc1Cl` (stereo not shown) [Example 88, 6-(3-Chloro-4-methylcarbamoyl-phenyl)-2,2-dimethyl-2H-chromene-8-carboxylic acid [2-(4-fluoro-1H-indol-3-yl)-1-hydroxymethyl-ethyl]-amide], for which the IC50 stood at 30 nM.
For `CC(=O)c1cccc(-c2cc3c(c(C(=O)N[C@@H](CO)Cc4c[nH]c5ccccc45)c2)OCC3)c1` [Example 56, 5-(3-Acetyl-phenyl)-2,3-dihydro-benzofuran-7-carboxylic acid [(R)-1-hydroxymethyl-2-(1H-indol-3-yl)-ethyl]-amide], the IC50 was 2000 nM.
With `O=C(N[C@@H](CO)Cc1c[nH]c2ccccc12)c1cc(-c2ccc(O)cc2)cc2c1OCC2` [Example 51, 5-(4-Hydroxy-phenyl)-2,3-dihydro-benzofuran-7-carboxylic acid [(R)-1-hydroxymethyl-2-(1H-indol-3-yl)-ethyl]-amide], the 50% inhibitory concentration (IC50) was 700 nM.

Still in this assay, the particulars now being: Table 2; hFSHR clone 16 cells (CHO cells stably transfected with the human FSH receptor), in the presence of 1e-9 mol/l hFSH, 37° C. for 2 h; read-out: IC50 (FSH-antagonistic effect in the HTRF assay).
As to `CN(C)S(=O)(=O)c1ccc(-c2cc3c(c(C(=O)N[C@@H](CO)Cc4c[nH]c5ccccc45)c2)OCCO3)cc1` [Example 123, 7-(4-Dimethylsulfamoyl-phenyl)-2,3-dihydro-benzo[1,4]dioxine-5-carboxylic acid [(R)-1-hydroxymethyl-2-(1H-indol-3-yl)-ethyl]-amide], the half-inhibitory concentration (IC50) turned out to be 2000 nM.
The same measure, in the same setting: the value for `O=C(N[C@@H](CO)Cc1c[nH]c2ccccc12)c1cc(-c2cccc(Cl)c2)cc2c1OCCO2` [Example 130, 7-(3-Chloro-phenyl)-2,3-dihydro-benzo[1,4]dioxine-5-carboxylic acid [(R)-1-hydroxymethyl-2-(1H-indol-3-yl)-ethyl]-amide] was 3000 nM; that for `Nc1cccc(-c2cc3c(c(C(=O)N[C@@H](CO)Cc4c[nH]c5ccccc45)c2)OCCO3)c1` [Example 135, 7-(3-Amino-phenyl)-2,3-dihydro-benzo[1,4]dioxine-5-carboxylic acid [(R)-1-hydroxymethyl-2-(1H-indol-3-yl)-ethyl]-amide] was 800 nM.
Still for that read-out and setting: the value for `CNC(=O)c1ccc(-c2cc3c(c(C(=O)NC(CO)Cc4c[nH]c5c(F)cc(F)cc45)c2)OC(C)(C)CC3)cc1Cl` (stereo not shown) [Example 190, 6-(3-Chloro-4-methylcarbamoyl-phenyl)-2,2-dimethyl-chroman-8-carboxylic acid [2-(5,7-difluoro-1H-indol-3-yl)-1-hydroxymethyl-ethyl]amide] was 70 nM.
As for `CS(=O)(=O)c1cccc(-c2cc3c(c(C(=O)N[C@@H](CO)Cc4c[nH]c5ccccc45)c2)OCCO3)c1` [Example 116, 7-(3-Methanesulfonyl-phenyl)-2,3-dihydro-benzo[1,4]dioxine-5-carboxylic acid [(R)-1-hydroxymethyl-2-(1H-indol-3-yl)-ethyl]-amide], the half-inhibitory concentration (IC50) turned out to be 2000 nM.
